Test results: US20200046870A1, “MATERIALS COMPRISING HYDROPHOBICALLY-MODIFIED BIOPOLYMER” (GEL-E LIFE SCIENCES, priority 2016, published 2020)

Tested on: Methicillin-resistant Staphylococcus aureus (MRSA)
Experiment: antimicrobial properties against MRSA (log killing)
Type: cell-based
Settings: high dose (100 μg/ml)
Description: FIG. 2 compares the antimicrobial properties of chitosan and hydrophobically modified chitosan, alongside ampicillin, against Methicillin-resistant Staphylococcus aureus (MRSA). Hm-chitosan at 0.5 wt % achieves a log killing of >2, whereas native chitosan (0.5 wt %) achieves a log killing of ˜1. In contrast, ampicillin at high dose (100 μg/ml) achieves only ˜0.5 log killing.

## CC1(C)S[C@@H]2[C@H](NC(=O)[C@H](N)c3ccccc3)C(=O)N2[C@H]1C(=O)O [ampicillin]
  log killing: ~0.5 log
